Tests used:
[1] = target: T1, human glucagon receptor (GCGR) (Homo sapiens, UniProt P47871); experiment: Luciferase reporter assay, HEK293/CRE-Luc/hGCGR (Example 17); format: cell-based; conditions: Table 28; CRE-dependent luciferase reporter activity
T1 construct: full-length human GLP1R, cynomolgus GLP1R, human glucagon receptor (GCGR); expressed in transfected cells; host or cells: HEK293/CRE-Luc

[2] = target: T2, human glucagon-like peptide 2 receptor (GLP2R) (Homo sapiens, UniProt O95838); experiment: CRE-luciferase reporter assay, HEK293/Myc-hGLP2R/Cre-Luc (Example 9); format: cell-based; conditions: Table 5C
T2 construct: full-length human GLP1R, cynomolgus GLP1R, human glucagon receptor (GCGR), human glucagon-like peptide 2 receptor (GLP2R); expressed in transfected cells; host or cells: HEK293/CRE-Luc
T2 sequence (O95838 1-553): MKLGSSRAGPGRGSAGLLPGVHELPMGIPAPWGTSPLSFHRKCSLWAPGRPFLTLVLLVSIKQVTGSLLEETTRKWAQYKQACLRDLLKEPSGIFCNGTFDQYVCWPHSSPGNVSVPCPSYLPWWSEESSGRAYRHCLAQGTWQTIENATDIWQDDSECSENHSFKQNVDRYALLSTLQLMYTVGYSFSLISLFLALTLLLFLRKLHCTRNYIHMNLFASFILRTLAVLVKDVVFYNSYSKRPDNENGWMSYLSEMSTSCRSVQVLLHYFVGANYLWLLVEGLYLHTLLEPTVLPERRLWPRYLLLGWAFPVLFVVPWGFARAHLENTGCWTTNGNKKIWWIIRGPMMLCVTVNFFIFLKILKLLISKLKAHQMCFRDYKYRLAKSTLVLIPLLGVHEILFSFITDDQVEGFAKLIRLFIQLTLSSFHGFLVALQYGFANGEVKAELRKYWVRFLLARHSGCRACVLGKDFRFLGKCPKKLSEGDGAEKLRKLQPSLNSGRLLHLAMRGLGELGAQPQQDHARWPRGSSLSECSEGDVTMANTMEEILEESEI
Procedure: To test the activity of GLP1R agonist payloads and GLP1R agonist linker-payloads (LPs) in vitro, a cell-based cAMP responsive luciferase reporter assay was developed.
Cells were incubated overnight at 37° C. in 5% CO2. […] Plates were incubated for 5.5 h at 37° C. in 5% CO2. For end-point measurement, 100 μL/well of One-Glo reagent (Promega, #E6051) was added and plates were kept at room temperature for 5-10 minutes. Luciferase activity was measured on Envision Multilabel Plate Reader (Perkin Elmer) in Luminescent mode. The relative light units (RLU) values were obtained and the results were analyzed using nonlinear regression with GraphPad Prism software (GraphPad).

[3] = Liver microsome stability; format: in vitro ADME, human
Procedure: To assess the in vitro ADME properties of the LP, microsomal stability assay was performed to determine intrinsic clearance, and plasma protein binding assay was performed to understand the distribution potential.

T1 sequence (P47871 26-477): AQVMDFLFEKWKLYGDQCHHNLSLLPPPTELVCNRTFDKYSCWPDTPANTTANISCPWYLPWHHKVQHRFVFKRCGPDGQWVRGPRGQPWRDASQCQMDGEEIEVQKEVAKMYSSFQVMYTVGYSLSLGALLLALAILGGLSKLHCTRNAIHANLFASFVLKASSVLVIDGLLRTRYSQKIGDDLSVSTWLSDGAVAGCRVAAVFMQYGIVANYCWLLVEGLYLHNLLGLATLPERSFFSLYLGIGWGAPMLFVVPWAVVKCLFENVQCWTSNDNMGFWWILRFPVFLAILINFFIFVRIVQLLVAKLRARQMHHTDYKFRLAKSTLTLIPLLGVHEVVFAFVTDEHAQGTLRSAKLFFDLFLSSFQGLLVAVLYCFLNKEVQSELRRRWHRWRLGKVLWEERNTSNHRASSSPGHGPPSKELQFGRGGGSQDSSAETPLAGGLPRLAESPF

Structure (SMILES)	EC50 [1] [nM]	GLP2R EC50 (nM) [2]	CLint(mic) ([3]; Table 7) [µL/min/mg]	CLint scaled ([3]; human, liver microsomes, Table 5C, read-out: Human Liver microsome CLint(liver)) [mL/min/kg]	microsomal CLint ([3]; human, liver microsomes, Table 5C, read-out: Human Liver microsome CLint(mic)) [µL/min/mg]	half-life ([3]; human, liver microsomes, Table 5C, read-out: Human Liver microsome T1/2) [h]
CCc1cc(OCCCCn2cc(COCCOCCOCCOCCOCCOCCOCCOCCN)nn2)ccc1-c1ccc(C[C@H](NC(=O)[C@H](CC(=O)O)NC(=O)[C@H](CO)NC(=O)[C@@H](NC(=O)[C@](C)(Cc2ccccc2F)NC(=O)[C@@H](NC(=O)CNC(=O)[C@H](Cc2nn[nH]n2)NC(=O)C(C)(C)C(=O)NCCc2cnc[nH]2)[C@@H](C)O)[C@@H](C)O)C(=O)N[C@@H](CCCc2cc(C)cc(C)c2)C(N)=O)cc1 [M3190]	> 200	–	–	–	–	–
CCc1cc(OCCCCn2cc(COCCOCCOCCOCCOCCOCCOCCOCCN)nn2)ccc1-c1ccc(C[C@H](NC(=O)[C@H](CC(=O)O)NC(=O)[C@H](CO)NC(=O)[C@@H](NC(=O)C(C)(Cc2ccccc2F)NC(=O)[C@@H](NC(=O)CNC(=O)[C@H](Cc2nn[nH]n2)NC(=O)C(C)(C)C(=O)NCCc2cnc[nH]2)[C@@H](C)O)[C@@H](C)O)C(=O)N[C@@H](CCCc2cc(C)cc(C)c2)C(N)=O)cc1 (stereo partly drawn) [LP11, NH2-PEG8-triazole-P8]	–	Completely inactive	<9.6	< 8.6	< 9.6	> 2.42
